In test [1] the test system is renal ischemia-reperfusion injury (IRI). Nature of the test: Renal ischemia-reperfusion injury mouse model: renal function tests and histology. The settings on record: for tissue damage due to ischemia-reperfusion (IRI-mediated damage): mouse model of renal ischemia reperfusion, overall statement. In kind it is in vivo, C57BL/6 mice. As to the method: (§1) C57BL/6 mice were intraperitoneally injected with 60 mg/kg of ML171, a selective NOX inhibitor or excipient at a time, renal ischemia-reperfusion injury (IRI) was induced by clamping bilateral renal vessels for 30 min. MDCK cells were incubated with H2O2 (1.4 mM) for 1 h to induce oxidative stress and treated with ML171 (1 and 2.5 μM). Renal damage was estimated using renal function tests and histology. NOX expression, oxidative stress markers, apoptosis assays and MAPK pathways were also evaluated in renal tissue and MDCK cells.

The subject of another test is NOX. Nature of the test: NOX mRNA expression in mouse kidney (IRI model). In kind it is in vivo. The settings on record: C57BL/6 mice, renal IRI, 60 mg/kg intraperitoneal; FIG. 2a, 2b. As to the method:
as §1

In test [2] the test system is reactive oxygen species (ROS). Nature of the test: Reactive oxygen species measurement in the kidney (IRI model). In kind it is in vivo. The settings on record: C57BL/6 mice, renal IRI, 60 mg/kg intraperitoneal; FIG. 2d, 2e. As to the method: as §1
In a further test the test system is apoptosis. Nature of the test: Apoptosis assays in the kidney (Caspase-3 activity, TUNEL, BCL-2/BAX; IRI model). To be noted: C57BL/6 mice, renal IRI, 60 mg/kg intraperitoneal. The test is classed as in vivo. The method, then: as §1
In test [3] the test system is ERK. Nature of the test: MAPK pathway western blot in kidney tissue (IRI model). In kind it is in vivo. The settings on record: C57BL/6 mice, renal IRI, 60 mg/kg intraperitoneal, FIG. 5a, 5b. As to the method:
as §1

Test [4] has as its system MDCK cells. Nature of the test: NOX-related gene and oxidative stress marker expression in H2O2-treated MDCK cells. In kind it is cell-based. To be noted: H2O2 1.4 mM 1 h, ML171 1 and 2.5 μM. The method, then:
as §1

The subject of test [5] is MDCK cells. The experiment in a line: ROS production in H2O2-treated MDCK cells. To be noted: H2O2 1.4 mM 1 h, ML171 1 and 2.5 μM, FIG. 6f. The test is classed as cell-based. As to the method: as §1
Test [6] relates to MDCK cells. The experiment in a line: Apoptosis assays in H2O2-treated MDCK cells (Caspase-3 activity, BCL-2/BAX, TUNEL). The test is classed as cell-based. The settings on record: H2O2 1.4 mM 1 h, ML171 1 and 2.5 μM. The method, then:
as §1

Test [7] has as its system ERK. The experiment in a line: MAPK pathway (ERK phosphorylation) in H2O2-treated MDCK cells. To be noted: H2O2 1.4 mM 1 h, ML171 1 and 2.5 μM, FIG. 8a, 8b. The test is classed as cell-based. As to the method: as §1

The values that follow come from patent US20230055500A1, “COMPOSITION FOR PREVENTING OR TREATING ISCHEMIA REPERFUSION INJURY COMPRISING NADPH OXIDASE 1 INHIBITOR AS ACTIVE INGREDIENT” (KYUNGPOOK NATIONAL UNIVERSITY INDUSTRY-ACADEMIC COOPERATION …, priority 2020, published 2023).

“Also recorded” adds a separate entry of the source.

As to `CC(=O)c1ccc2c(c1)Nc1ccccc1S2` [ML171], the “level of kidney damage in the blood (renal function test)” value in [1] (C57BL/6 mice, renal IRI (bilateral clamping 30 min), 60 mg/kg intraperitoneal, FIG. 1a, 1b) is “a significant decrease”. Further, the “damage to renal tubular epithelial cells, PAS staining” value in test [1] (C57BL/6 mice, renal IRI, 60 mg/kg intraperitoneal, FIG. 1c) is recorded as “reduced damage to renal tubular epithelial cells”. Further, the “renal fibrosis, Trichrome stain” value in test [1] (C57BL/6 mice, renal IRI, 60 mg/kg intraperitoneal, FIG. 4a, 4b) is on record as “fibrosis was significantly reduced”. Besides, the entries for the “tissue damage due to ischemia-reperfusion (IRI-mediated damage)” value in test [1] and in [1] (listed as compound of Formula 1) were “significantly attenuated IRI-mediated damage” and “exhibits an effect of alleviating tissue damage due to ischemia-reperfusion”, respectively. Moreover, in the test with NOX, the “NOX mRNA expression level in mouse kidney” value is on record as “significantly reduced”. For the same compound, the “reactive oxygen species (ROS) in the kidney” value in test [2] is given as “effectively blocked ROS”. Besides, the “Caspase-3 activity in the kidney” value with apoptosis (FIG. 3a, 60 mg/kg) is “significant apoptosis alleviation effect; also recorded: reversed a decrease in Bcl-2 and an increase in Caspase-3 activity”. Besides, the “apoptosis, TUNEL assay histological staining of kidney” value with apoptosis (FIG. 3b) is on record as “alleviated apoptosis”. In the test on apoptosis (FIG. 3c, 60 mg/kg), the “protein expression levels of apoptosis markers BCL-2 and BAX in the kidneys” value was “effectively inhibited apoptosis; also recorded: reversed a decrease in Bcl-2”. Also, in the test on ERK [3], the “phosphorylation of ERK in kidney tissue (western blot)” value is reported as “effectively reduced it; also recorded: affect ERK signaling”. In the test with MDCK cells [4], the “changes in oxidative stress-related enzymes, SOD and GXP production” value is “alleviated by ML171 treatment”. The “expression of NOX-related genes / oxidative stress markers (NOX1, NOX2, p40)” value in the test with MDCK cells [4] (FIG. 6a-6e) is “effectively decreased; also recorded: reduced the expression of NOX1, NOX2 and p40”. The “ROS production in cells” value in the test on MDCK cells [5] is reported as “significantly reduced ROS”. Further, in the test with MDCK cells [6] (FIG. 7a), the Caspase-3 activity result is given as “a decrease in Caspase-3 activity”. Further, in the test on MDCK cells [6] (FIG. 7b), the “protein expression levels of apoptosis markers BCL-2 and BAX” value is “apoptosis was significantly inhibited; also recorded: significant increase in Bcl-2 levels”. Besides, the “apoptosis pattern, intracellular TUNEL assay staining” value with MDCK cells [6] (FIG. 7c) is listed as “effectively blocked it”. The “ERK phosphorylation in MDCK cells” value with ERK [7] is “significantly reduced and regulated this; also recorded: affect ERK signaling”.
